Measured values: US20220144881A1, “COMPOUNDS AND METHODS FOR MANUFACTURE OF HYPOMETHYLATING AGENTS” (priority 2020, published 2022)

Assay: Effect of relative humidity on polymorphic forms of Compound 10 (monitored by XRPD)
Assay type: physicochemical
Conditions: for Stability at 0% RH: relevant condition for storage and further processing; for Form conversion at 33% RH: Form A only after at least 2 weeks; for Description of polymorph (stability / conditions of formation): RH = relative humidity; for Form conversion at 97% RH and above: RH of 97% and above
Method: Studies were performed to identify the different polymorphic forms of Compound 10 drug substance. Seven polymorphs of Compound 10 in total have been identified (TABLE 1).
Compound 10 is hygroscopic and is therefore packaged and stored at conditions that inhibit moisture uptake. Experiments were performed to understand the effect of relative humidity on various polymorphic forms of Compound 10. Form A and Form B were subjected to increasing relative humidity (TABLE 2) and monitored using XRPD to evaluate polymorphism.
Forms A, B, C, and D were characterized by X-ray powder diffraction (XRPD). XRPD diffractograms were collected with a PANalytical X'Pert PRO MPD® diffractometer using an incident beam of Cu radiation produced using an Optix long, fine-focus source. An elliptically graded multilayer mirror was used to focus Cu Kα X-rays through the specimen and onto the detector. Prior to the analysis, a silicon specimen (NIST SRM 640e) was analyzed to verify the observed position of the Si 111 peak is consistent with the NIST-certified position. For the determination of solid forms under the environmental conditions surveyed in EXAMPLE 6, samples of Compound 10 were stored within environmental chambers maintained at specific relative humidity conditions. A specimen of the sample was sandwiched between 3-μm-thick Etnom® films within these environmental chambers. Once prepared, the test article was removed from the environmental chamber and analyzed in transmission geometry without undue delay. A beam-stop, short antiscatter extension, and antiscatter knife edge were used to minimize the background generated by air. Soller slits for the incident and diffracted beams were used to minimize broadening from axial divergence. Diffraction patterns were collected using a scanning position-sensitive detector (X'Celerator) located 240 mm from the specimen and Data Collector software v. 2.2b.

Nc1ncn([C@H]2C[C@H](OP(=O)([O-])OC[C@H]3O[C@@H](n4cnc5c(=O)[nH]c(N)nc54)C[C@@H]3O)[C@@H](CO)O2)c(=O)n1.[Na+] [Form A, guadecitabine sodium]
Stability at 0% RH: stable
Duration of stability at 33% RH (33% RH): at least 2 weeks
Form conversion at 33% RH (33% RH): converted to Form K
Description of polymorph (stability / conditions of formation): Stable form at 0% RH

Nc1ncn([C@H]2CC(OP(=O)([O-])OC[C@H]3O[C@@H](n4cnc5c(=O)[nH]c(N)nc54)CC3O)[C@@H](CO)O2)c(=O)n1.[Na+] (some centres unmarked) [Form D, guadecitabine sodium]
Description of polymorph (stability / conditions of formation): Formed from Form B at 58% RH

Nc1ncn([C@H]2C[C@H](OP(=O)([O-])OC[C@H]3O[C@@H](n4cnc5c(=O)[nH]c(N)nc54)C[C@@H]3O)[C@@H](CO)O2)c(=O)n1.[Na+] [Compound 10, guadecitabine sodium]
Hygroscopicity: hygroscopic

Nc1ncn([C@H]2C[C@H](OP(=O)([O-])OC[C@H]3O[C@@H](n4cnc5c(=O)[nH]c(N)nc54)C[C@@H]3O)[C@@H](CO)O2)c(=O)n1.[Na+] [Form K, guadecitabine sodium]
Description of polymorph (stability / conditions of formation): Formed from Form A at 58% RH
Form conversion at 97% RH and above: converted to Form L

Nc1ncn([C@H]2CC(OP(=O)([O-])OC[C@H]3O[C@@H](n4cnc5c(=O)[nH]c(N)nc54)CC3O)[C@@H](CO)O2)c(=O)n1.[Na+] (some centres unmarked) [Form L, guadecitabine sodium]
Description of polymorph (stability / conditions of formation): Formed from Form A at 97% RH

Nc1ncn([C@H]2C[C@H](OP(=O)([O-])OC[C@H]3O[C@@H](n4cnc5c(=O)[nH]c(N)nc54)C[C@@H]3O)[C@@H](CO)O2)c(=O)n1.[Na+] [Form B, guadecitabine sodium]
Stability at 0% RH: stable
Form conversion at 33% RH (33% RH): converted to Form H
Polymorph observed at 97% RH (97% relative humidity, XRPD): Mesophase
Description of polymorph (stability / conditions of formation): Stable form at 0% RH
Form obtained on increasing RH (RH increased beyond 33%): formation of Form D
Form conversion at 97% RH and above: deliquescence to afford a mesophase

Nc1ncn([C@H]2C[C@H](OP(=O)([O-])OC[C@H]3O[C@@H](n4cnc5c(=O)[nH]c(N)nc54)C[C@@H]3O)[C@@H](CO)O2)c(=O)n1.[Na+] [Form C, guadecitabine sodium]
Description of polymorph (stability / conditions of formation): Formed from ethanolic slurry of Form A

Nc1ncn([C@H]2C[C@H](OP(=O)([O-])OC[C@H]3O[C@@H](n4cnc5c(=O)[nH]c(N)nc54)C[C@@H]3O)[C@@H](CO)O2)c(=O)n1.[Na+] [Form H, guadecitabine sodium]
Description of polymorph (stability / conditions of formation): Formed from Form B at 33% RH
